Laboratory results as given in PMC9839694, “Genetic basis of thiaminase I activity in a vertebrate, zebrafish Danio rerio” (Scientific Reports, 2023).
Where a name gives a salt, the structure may show the parent alone.

Key:
[1] = target: T1, Paenibacillus thiaminolyticus thiaminase I (WP_087440168) (Paenibacillus thiaminolyticus, UniProt B0FJ10); assay: in-gel thiaminase I activity staining (diazo-coupling) after electrophoresis; format: biochemical; settings: 0.89 mM thiamine-HCl with a co-substrate, 25 mM sodium phosphate, 37 °C; recombinant positive control
T1 construct: gene bcmE; native enzyme in concentrated culture supernatant (strain 8188), and recombinant positive control from synthetic gene in pET52b in E. coli; 42 kDa monomer
T1 sequence (B0FJ10 31-409): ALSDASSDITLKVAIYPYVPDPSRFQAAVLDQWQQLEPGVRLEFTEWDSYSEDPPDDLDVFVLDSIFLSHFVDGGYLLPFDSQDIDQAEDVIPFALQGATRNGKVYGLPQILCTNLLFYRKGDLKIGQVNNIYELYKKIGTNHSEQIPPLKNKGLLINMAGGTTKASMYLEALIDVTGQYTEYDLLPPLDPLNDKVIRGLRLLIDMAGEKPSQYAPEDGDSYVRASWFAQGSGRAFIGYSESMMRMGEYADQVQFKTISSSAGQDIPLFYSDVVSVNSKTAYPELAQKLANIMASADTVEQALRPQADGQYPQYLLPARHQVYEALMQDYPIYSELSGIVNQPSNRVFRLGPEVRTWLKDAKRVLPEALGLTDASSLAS

[2] = target: T2, zebrafish TenA-like thiaminase I (NP_001314821.1) (Danio rerio, UniProt A0A0R4IDF2); assay: as above; format: biochemical; settings: 0.89 mM thiamine-HCl with a co-substrate, 25 mM sodium phosphate, 37 °C
T2 construct: gene teni.1; synthetic gene in pET52b, expressed in E. coli Rosetta 2(DE3)pLysS, soluble lysate fraction; oligomer 25 to 100 kDa native
T2 sequence (A0A0R4IDF2 22-223): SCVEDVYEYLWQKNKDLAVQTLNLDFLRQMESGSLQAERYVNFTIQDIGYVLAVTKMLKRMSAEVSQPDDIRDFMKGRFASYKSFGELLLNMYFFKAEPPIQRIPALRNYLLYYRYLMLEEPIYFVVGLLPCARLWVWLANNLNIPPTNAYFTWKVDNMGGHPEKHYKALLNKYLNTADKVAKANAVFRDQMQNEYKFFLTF

Cc1ncc(C[n+]2csc(CCO)c2C)c(N)n1 [thiamine-HCl]
in-gel thiaminase I activity staining (diazo-coupling) after electrophoresis [1]: stained for activity showing thiamine degradation as clear areas
in-gel thiaminase I activity staining (diazo-coupling) after electrophoresis [2]: expressed in the soluble fraction of the protein extract and showed thiaminase I activity
